One assay has as its system endonuclease G. The experiment in a line: Immunohistology of xenograft tumour sections, endonuclease G. It counts as in vivo, SCID mice. As to conditions: 100 mg/kg, compared to control. The method, then:
(§1) FIG. 11. Cpd 1 markers of autophagy observed in in vitro studies are also present in vivo. […] T-S6K served as loading control.
(§2) In vivo studies using tumour-bearing mice were conducted to further confirm that Cpd 1 induces programmed cell death via an autophagic process. SCID mice bearing chemoresistant epithelial ovarian cancer (EOC) xenografts derived from a primary cell culture of a patient's ascites were administered with increasing doses of Cpd 1 by intraperotineal injection resulting in reductions in both tumor volume and tumor weight (data not shown). Representative tumours excised from these mice and tumour-bearing mice administered vehicle control were then fixed, sectioned and subjected to immunohistopathology analysis using an α-enodonuclease G directed monoclonal antibody. Tumor samples were blocked with either 10% horse or goat serum in PBS for 1 hour at room temperature. Following three washes with PBS, samples were incubated overnight at 4° C. with either the anti-EndoG (LifeSpan Bioscience) antibody or mouse IgG1 isotype as negative controls. After three washes with PBS, specific staining was detected by incubating with a peroxidase-conjugated horse anti-mouse antibody (1:1000 dilution) for 1 hour followed by a five-minute incubation with DAB substrate (Vector Laboratories). […]

The next assay relates to R-182 cells. The experiment in a line: Mitochondrial membrane depolarization, JC-1 flow cytometry. It counts as cell-based, Human. The following applies: cells treated 5 μg/ml. From the text: (§3) FIG. 8. Molecular evidence of autophagic cell death in R-182 ovarian cancer cells induced by Cpd 1. […] B, Beclin 1 binds to Bcl-2. Immunoprecipitation study using mitochondrial preparations of cells pre-treated with Cpd 1 as stated in A, and subjected to beclin 1 immunoprecitation. Immunoprecipitated fractions were washed in PBS, subjected to SDS-PAGE, blotted and then probed with a mouse anti-Bcl-2 antibody. Actin and Topo-1 were used as loading control. C, Depolarized cells resulting from over-expression of Bax and Beclin 1 following administration of Cpd 1. Cells were treated with Cpd 1 as described in A, pelleted and washed in HBSS and the cell pellet resuspended in the reaction buffer for JC-1 (Biovision, Inc. MitoCapture™ K250-100). HBSS-washed cells were analysed by flow cytometry (λexcit=488 nm and (λemit=530 nm for green fluorescence (depolarized) or 590 nm for red fluorescence (polarized). 10,000 gated events were measured with a BD FACScalibur. Results were expressed as mean±standard deviation (n=3).
To measure membrane depolarization cells were treated with Cpd 1 as described above, pelleted and washed in HBSS and the cell pellet resuspended in the reaction buffer for JC-1 (Biovision, Inc. MitoCapture™ K250-100). HBSS-washed cell pellets were resuspended in 1 mL aliquots of the Mitocapture reagent buffer with 1 μL of JC-1 solution in DMSO (Biovision).

A further assay has as its system Beclin 1. The experiment in a line: Western blot of R-182 mitochondrial extracts, Beclin 1. In kind it is cell-based, Human. As to conditions: R-182 cells, 5 μg/ml over 24 hr.
Description: as §3
After treatment with Cpd 1, protein was extracted from cells and measured as previously described (Kamsteeg et al., 2003). For separation of the cytoplasmic and mitochondrial fractions, cell pellets were processed using the ApoAlert Cell Fractionation kit (Promega) according to the manufacturer's instructions. […]
For orientation: A western blot detects proteins with antibodies after separation by electrophoresis.

Assay [1] deals with chemoresistant epithelial ovarian cancer (EOC) xenografts. The experiment in a line: EOC xenograft in SCID mice, tumour growth. In kind it is in vivo. The following applies: increasing doses, intraperitoneal injection; data not shown. The protocol: as §2, with “Laboratories). Tissue sections were then counterstained with haematoxylin (Sigma Chemical Co.) before dehydration with ethanol and Histosolve (Shandon Inc., Pittsburgh, Pa.).” for “Laboratories).”

The next assay has as its system S6K. The experiment in a line: Western blot of xenograft tumour extracts, S6K phosphorylation. It counts as in vivo, SCID mice. The following applies: tumour-bearing mice dosed with Cpd 1, compared to control. The protocol: as §1
A downstream target of mTOR is the ribosomal protein S6K kinase thought to have a role in tumour invasiveness, motility and angiogenesis as well as other degenerative diseases such as diabetes (Dann et al., 2007). […] Tumour tissue was homogenised in lysis buffer containing 1% Nonidet P-40, 0.1% SDS, 0.5% deoxycholate, 150 mM NaCl, 50 mM Tris-HCl pH7.5, 1 mM EDTA, 1 mM PMSF and protease inhibitors (Roche) on ice for 30 minutes. After centrifugation at 15,000×g for 15 minutes, soluble extract was were aliquoted into a separate tube, protein content assayed by the BCA method (Pierce), and 50 μg protein loaded on SDS-PAGE gels. Proteins were electrophoretically transferred to PVDF membranes (Millipore Immobilon P) and the membranes were probed with antibodies specific to p-S6K and t-S6K (LifeSpan Bioscience). The blots were developed on X-ray films using HRP-conjugated secondary antibodies and a chemiluminescent substrate (ECL, Amersham, N.Y.).

Molecules are shown by their SMILES.

The record followed here is patent publication US20100173983A1, “METHOD FOR INDUCING AUTOPHAGY” (priority 2007, published 2010).

Turning to `COc1ccc([C@H]2c3ccc(O)c(C)c3OC[C@H]2c2ccc(O)cc2)cc1` (stereo in doubt) [Cpd 1, 3-(4-hydroxyphenyl)-4-(4-methoxyphenyl)-8-methylchroman-7-ol], in the assay with endonuclease G, the “expression of nuclear endonuclease G in tumour sections” value is given as “increased”. The mitochondrial membrane depolarization entry with R-182 cells is reported as “results in mitochondrial membrane depolarization”. Also, the “mitochondrial content of beclin-1” value in the assay on Beclin 1 is “transiently increased”. For the same compound, in assay [1], the tumor volume result is recorded as “reductions” and the tumor weight entry is on record as “reductions”. In addition, the “phosphorylation status of S6K (S6K-P) in tumour extracts” value in the assay on S6K is “reduced compared to control”.
